pIC50: −log10 of the molar value.
Target: DNA polymerase theta (Homo sapiens, UniProt O75417)
Experiment: Inhibition of human DNA polymerase theta (1 to 899 residues) ATPase activity using dT50 single strand DNA as substrate by NADH oxidation-coupled enzymatic assay

Sequence of DNA polymerase theta (O75417 whole entry, the tested form may be a part): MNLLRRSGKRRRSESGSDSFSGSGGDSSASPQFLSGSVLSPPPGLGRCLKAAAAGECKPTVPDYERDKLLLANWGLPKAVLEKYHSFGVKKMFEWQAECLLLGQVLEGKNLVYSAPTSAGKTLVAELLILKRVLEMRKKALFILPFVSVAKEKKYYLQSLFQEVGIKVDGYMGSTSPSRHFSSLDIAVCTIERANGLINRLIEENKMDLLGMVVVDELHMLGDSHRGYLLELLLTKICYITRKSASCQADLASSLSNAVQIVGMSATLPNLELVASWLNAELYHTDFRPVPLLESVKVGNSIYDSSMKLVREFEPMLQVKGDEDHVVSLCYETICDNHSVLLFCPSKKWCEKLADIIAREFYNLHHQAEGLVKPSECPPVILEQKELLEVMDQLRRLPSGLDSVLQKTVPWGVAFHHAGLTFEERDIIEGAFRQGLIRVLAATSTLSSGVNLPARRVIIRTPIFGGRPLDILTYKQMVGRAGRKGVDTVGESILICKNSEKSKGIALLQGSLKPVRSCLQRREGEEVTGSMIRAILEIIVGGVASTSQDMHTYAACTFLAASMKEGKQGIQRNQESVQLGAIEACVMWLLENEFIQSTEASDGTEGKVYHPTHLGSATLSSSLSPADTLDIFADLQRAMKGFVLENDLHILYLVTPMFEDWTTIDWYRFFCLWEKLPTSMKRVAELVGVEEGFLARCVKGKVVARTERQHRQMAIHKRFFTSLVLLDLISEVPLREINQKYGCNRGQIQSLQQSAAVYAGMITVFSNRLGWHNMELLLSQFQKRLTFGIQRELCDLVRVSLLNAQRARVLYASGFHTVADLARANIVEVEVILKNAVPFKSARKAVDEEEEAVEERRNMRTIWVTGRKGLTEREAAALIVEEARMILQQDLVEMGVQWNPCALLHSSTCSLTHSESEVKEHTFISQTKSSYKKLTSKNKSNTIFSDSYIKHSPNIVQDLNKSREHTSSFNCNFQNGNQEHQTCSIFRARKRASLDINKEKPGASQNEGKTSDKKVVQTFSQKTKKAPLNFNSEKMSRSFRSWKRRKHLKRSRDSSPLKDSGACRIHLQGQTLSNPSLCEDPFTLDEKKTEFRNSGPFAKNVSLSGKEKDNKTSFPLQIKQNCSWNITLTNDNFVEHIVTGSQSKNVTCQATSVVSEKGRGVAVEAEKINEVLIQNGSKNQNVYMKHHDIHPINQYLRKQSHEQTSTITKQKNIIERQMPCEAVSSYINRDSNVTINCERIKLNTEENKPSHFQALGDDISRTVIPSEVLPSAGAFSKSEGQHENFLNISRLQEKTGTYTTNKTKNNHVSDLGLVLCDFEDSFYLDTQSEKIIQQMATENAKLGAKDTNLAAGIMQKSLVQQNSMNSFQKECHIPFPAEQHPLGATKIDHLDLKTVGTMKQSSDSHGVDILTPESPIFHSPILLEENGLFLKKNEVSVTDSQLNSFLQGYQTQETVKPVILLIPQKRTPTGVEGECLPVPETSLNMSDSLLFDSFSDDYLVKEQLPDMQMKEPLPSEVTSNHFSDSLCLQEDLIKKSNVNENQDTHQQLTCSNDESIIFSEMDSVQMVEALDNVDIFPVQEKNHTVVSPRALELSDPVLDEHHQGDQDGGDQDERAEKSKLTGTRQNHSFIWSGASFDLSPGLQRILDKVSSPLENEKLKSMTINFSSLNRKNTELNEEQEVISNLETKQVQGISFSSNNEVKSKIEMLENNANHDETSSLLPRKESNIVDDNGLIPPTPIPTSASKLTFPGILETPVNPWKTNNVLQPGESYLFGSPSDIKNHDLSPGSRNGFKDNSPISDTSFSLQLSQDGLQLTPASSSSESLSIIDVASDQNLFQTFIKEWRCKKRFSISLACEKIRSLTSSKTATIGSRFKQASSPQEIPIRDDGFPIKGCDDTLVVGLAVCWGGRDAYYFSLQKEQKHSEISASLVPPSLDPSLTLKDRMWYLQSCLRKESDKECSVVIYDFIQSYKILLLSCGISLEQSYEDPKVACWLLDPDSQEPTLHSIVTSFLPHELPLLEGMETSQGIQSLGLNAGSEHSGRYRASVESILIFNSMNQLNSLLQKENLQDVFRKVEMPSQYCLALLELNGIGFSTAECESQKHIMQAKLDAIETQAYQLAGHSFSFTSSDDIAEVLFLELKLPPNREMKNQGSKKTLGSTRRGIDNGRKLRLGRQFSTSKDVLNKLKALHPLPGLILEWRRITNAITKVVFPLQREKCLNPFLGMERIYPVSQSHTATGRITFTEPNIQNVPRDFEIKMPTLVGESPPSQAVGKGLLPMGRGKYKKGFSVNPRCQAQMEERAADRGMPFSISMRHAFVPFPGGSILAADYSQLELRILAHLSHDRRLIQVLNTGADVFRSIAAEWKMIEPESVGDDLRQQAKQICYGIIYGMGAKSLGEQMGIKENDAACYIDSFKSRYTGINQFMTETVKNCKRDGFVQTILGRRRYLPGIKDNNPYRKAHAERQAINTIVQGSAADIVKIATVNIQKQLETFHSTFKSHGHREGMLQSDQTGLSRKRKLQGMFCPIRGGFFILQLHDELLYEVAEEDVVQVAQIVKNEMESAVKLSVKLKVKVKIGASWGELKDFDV

- pIC50: < 5.00
SMILES: COc1nnc(NC(=O)c2cnc(C)cc2-c2c(OC)ccc3scnc23)s1

Source: ChEMBL document CHEMBL5393459, “O-linked thiadiazolyl compounds as dna polymerase theta inhibitors” (2022)
